Results: patent US12053547B2, “Liposomal compositions and methods of use” (Alastin Skincare, Inc., priority 2018, dated 2024)

Assay: log Kow (penetration ability) of test molecules
Assay type: physicochemical
Experimental: A water suspension of liposomes was prepared with 1.5% of hydrophilic molecule A or 300 ppm (0.03%) hydrophilic molecule B, and 27% Pro-Lipo™ Neo. […] Molecule B was a hexapeptide (hexapeptide-38) with a molecular weight of (870 g/mol) and a penetration ability log Kow of −1.13. A water solution with 1.5% A or 300 ppm B was used as a control (non-entrapped molecule).

Compound | penetration ability log Kow
hexapeptide-38 [Molecule B] | −1.13
Cn1c(=O)c2c(ncn2C)n(C)c1=O [Molecule A, caffeine] | −0.07
